Laboratory results reported in patent US11427606B2, “Azithromycin derivatives containing a phosphonium ion as anticancer agents” (Rising Tide Foundation, priority 2017, dated 2022).

System: MDA-231 cancer cells
Experiment: Inhibition of proliferation assay: cell confluence (IncuCyte imaging)
Format: cell-based
Conditions: compound at 10 uM; MDA-231 cells; IncuCyte images every 3 h over 4-5 d; relative confluence normalised to time zero
How it was run: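 MDA-231 cancer cells from ATCC were grown in DMEM with 10% FBS, 2 mM Glutamax, 1 mM NEAA and 1 mM sodium pyruvate. An IncuCyte Live Cell Imaging microscope with a 10× objective imaged one field per well every 3 h for 4-5 d. Its built-in algorithm computed percent confluence as a proliferation surrogate, and values were normalised to each sample's time-zero value.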

SMILES | % Confluence [%]
CC[C@H]1OC(=O)[C@H](C)[C@@H](O[C@H]2C[C@@](C)(OC)[C@@H](O)[C@H](C)O2)[C@H](C)[C@@H](O[C@@H]2O[C@H](C)C[C@H](N(C)C)[C@H]2O)[C@](C)(O)C[C@@H](C)CN(CCCCCC[P+](C2CCCCC2)(C2CCCCC2)C2CCCCC2)[C@H](C)[C@@H](O)[C@]1(C)O.[I-] [Example 9] | 70.9
CC[C@H]1OC(=O)[C@H](C)[C@@H](O[C@H]2C[C@@](C)(OC)[C@@H](O)[C@H](C)O2)[C@H](C)[C@@H](O[C@@H]2O[C@H](C)C[C@H](N(C)C)[C@H]2O)[C@](C)(O)C[C@@H](C)CN(C(=O)CCCCCCCCCCC[PH](C)(C)c2ccccc2)[C@H](C)[C@@H](O)[C@]1(C)O [Example 23, {12-[(2R,3S,4R,5R,8R,10R,11R,12S,13S,14R)-11-{[(2S,3R,4S,6R)-4-(dimethylamino)-3-hydroxy-6-methyloxan-2-yl]oxy}-2-ethyl-3,4,10-trihydroxy-13-{[(2R,4R,5S,6S)-5-hydroxy-4-methoxy-4,6-dimethyloxan-2-yl]oxy}-3,5,8,10,12,14-hexamethyl-15-oxo-1-oxa-6-azacyclopentadecan-6-yl]-12-oxododecyl}dimethylphenylphosphonium chloride] | 7.5
CC[C@H]1OC(=O)[C@H](C)[C@@H](O[C@H]2C[C@@](C)(OC)[C@@H](O)[C@H](C)O2)[C@H](C)[C@@H](O[C@@H]2O[C@H](C)C[C@H](N(C)C)[C@H]2O)[C@](C)(O)C[C@@H](C)CN(CCCCCC[P+](c2ccccc2-c2ccccc2N(C)C)(C2CCCCC2)C2CCCCC2)[C@H](C)[C@@H](O)[C@]1(C)O [Example 10, dicyclohexyl({6-[(2R,3S,4R,5R,8R,10R,11R,12S,13S,14R)-11-{[(2S,3R,4S,6R)-4-(dimethylamino)-3-hydroxy-6-methyloxan-2-yl]oxy}-2-ethyl-3,4,10-trihydroxy-13-{[(2R,4R,5S,6S)-5-hydroxy-4-methoxy-4,6-dimethyloxan-2-yl]oxy}-3,5,8,10,12,14-hexamethyl-15-oxo-1-oxa-6-azacyclopentadecan-6-yl]hexyl})[2′-(dimethylamino)-[1,1′-biphenyl]-2-yl]phosphonium iodide] | 4
CC[C@H]1OC(=O)[C@H](C)[C@@H](O[C@H]2C[C@@](C)(OC)[C@@H](O)[C@H](C)O2)[C@H](C)[C@@H](O[C@@H]2O[C@H](C)C[C@H](N(C)C)[C@H]2O)[C@](C)(O)C[C@@H](C)CN(CCCCCCCCCC[P+](c2ccc(OC)cc2)(c2ccc(OC)cc2)c2ccc(OC)cc2)[C@H](C)[C@@H](O)[C@]1(C)O.[I-] [Example 15] | 16.6
CC[C@H]1OC(=O)[C@H](C)[C@@H](O[C@H]2C[C@@](C)(OC)[C@@H](O)[C@H](C)O2)[C@H](C)[C@@H](O[C@@H]2O[C@H](C)C[C@H](N(C)C)[C@H]2O)[C@](C)(O)C[C@@H](C)CN(C(=O)CCCCCCC[P+](c2ccccc2)(c2ccccc2)c2ccccc2CN(C)C)[C@H](C)[C@@H](O)[C@]1(C)O [Example 17, {8-[(2R,3S,4R,5R,8R,10R,11R,12S,13S,14R)-11-{[(2S,3R,4S,6R)-4-(dimethylamino)-3-hydroxy-6-methyloxan-2-yl]oxy}-2-ethyl-3,4,10-trihydroxy-13-{[(2R,4R,5S,6S)-5-hydroxy-4-methoxy-4,6-dimethyloxan-2-yl]oxy}-3,5,8,10,12,14-hexamethyl-15-oxo-1-oxa-6-azacyclopentadecan-6-yl]-8-oxooctyl}({2-[(dimethylamino)methyl]phenyl})diphenylphosphonium hexafluorophosphate(V)] | 93.1
CC[C@H]1OC(=O)[C@H](C)[C@@H](O[C@H]2C[C@@](C)(OC)[C@@H](O)[C@H](C)O2)[C@H](C)[C@@H](O[C@@H]2O[C@H](C)C[C@H](N(C)C)[C@H]2O)[C@](C)(O)C[C@@H](C)CN(C(=O)CCCCCCC[P+](c2ccccc2)(c2ccccc2)c2cnn(C)c2)[C@H](C)[C@@H](O)[C@]1(C)O.[Cl-] [Example 27, {8-[(2R,3S,4R,5R,8R,10R,11R,12S,13S,14R)-11-{[(2S,3R,4S,6R)-4-(dimethylamino)-3-hydroxy-6-methyloxan-2-yl]oxy}-2-ethyl-3,4,10-trihydroxy-13-{[(2R,4R,5S,6S)-5-hydroxy-4-methoxy-4,6-dimethyloxan-2-yl]oxy}-3,5,8,10,12,14-hexamethyl-15-oxo-1-oxa-6-azacyclopentadecan-6-yl]-8-oxooctyl}(1-methyl-1H-pyrazol-4-yl)diphenylphosphonium chloride] | 123
CC[C@H]1OC(=O)[C@H](C)[C@@H](O[C@H]2C[C@@](C)(OC)[C@@H](O)[C@H](C)O2)[C@H](C)[C@@H](O[C@@H]2O[C@H](C)C[C@H](N(C)C)[C@H]2OC(C)=O)[C@](C)(O)C[C@@H](C)CN(C)[C@H](C)[C@@H](OC(=O)NCCCCCCCCCC[P+](C)(C)c2ccccc2)[C@]1(C)O.[Br-] [Example 38, (2S,3R,4S,6R)-2-{[(2R,3R,4R,5R,8R,10R,11R,12S,13S,14R)-4-[({10-[dimethyl(phenyl)phosphoniumyl]decyl}carbamoyl)oxy]-2-ethyl-3,10-dihydroxy-13-{[(2R,4R,5S,6S)-5-hydroxy-4-methoxy-4,6-dimethyloxan-2-yl]oxy}-3,5,6,8,10,12,14-heptamethyl-15-oxo-1-oxa-6-azacyclopentadecan-11-yl]oxy}-4-(dimethylamino)-6-methyloxan-3-yl acetate bromide] | 135
